Structures can show the parent of a compound that is named as a salt.
Tested on: MTT (mouse pheochromocytoma)
Assay: IC50 of cell viability (ATP content)
Settings: (24 or 48 h)
Outline: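 Each well of a white 1536-well plate received 5 µl of MTT mouse pheochromocytoma cells at 200,000 cells/ml in DMEM containing 5% FBS and 1% horse serum. After overnight culture at 37°C, 5% CO2, cells were exposed for 24 or 48 hrs to 23 nl of library compound in DMSO, pinned at 8 final concentrations from 0.5 nM to 46 µM. CellTiter-Glo luminescence was read after 15 minutes, and IC50 was obtained from a four-parameter logistic fit of signals normalised to positive-control and DMSO wells.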

Compound	IC50 of cell viability [µM]
CC(=O)NO [ACETOHYDROXAMIC ACID]	> 46
O=S(=O)([O-])C(F)(F)C(F)(F)C(F)(F)C(F)(F)F [Potassium nonafluoro-1-butanesulfonate]	> 46
C[S+](=O)([O-])OCCCCO[S+](C)(=O)[O-] [Busulfan]	> 46
COP(=S)(OC)Oc1ccc(Sc2ccc(OP(=S)(OC)OC)cc2)cc1 [TEMEFOSUM]	> 46
Cl.NCCCC(N)(C(=O)O)C(F)F (racemic) [DL-alpha-Difluoromethylornithine hydrochloride]	> 46
CC1(C)SC2C(NC(=O)C(N)c3ccccc3)C(=O)N2C1C(=O)O (stereo not given) [Ampicillin A]	> 46
CN1C[C@@H](NS(=O)(=O)N(C)C)C[C@@H]2c3cccc4c3c(cn4C)C[C@H]21 [MESULERGINE]	> 46
O=C1CC2(CCCC2)CC(=O)N1CCNCC1COc2ccccc2O1 (stereo not given)	> 46
OC(=O)CN(CC(O)=O)CC1=CC/2=C(OC/3=C/C(=O)/C(=C\C3=C2C4=CC=CC=C4C(O)=O)CN(CC(O)=O)CC(O)=O)C=C1O [CALCEIN]	> 46
CN1CCN(CC1)\C2=N\C3=C(NC4=C2C=CC=C4)C=CC(=C3)Cl [CLOZAPINE]	> 46
CCCCCCCCCCCCCCCC(=O)OCC(NC(=O)C(Cl)Cl)C(O)c1ccc([N+](=O)[O-])cc1 (stereo not given) [Chloramphenicol palmitate]	> 46
O=C(O)CCCCC(=O)O [Adipic acid]	> 46
CC[C@H](NC(C)C)[C@H](O)c1ccc(O)c(O)c1.C[S+](=O)([O-])O [Isoetharine mesylate salt]	> 46
CCCCC[C@H](O)/C=C\[C@@H]1[C@H](O)CC(=O)[C@@H]1CCCCCCC(=O)O [Alprostadil]	> 46
CCN(CC)C(=O)c1cccc(C)c1 [DIETHYLTOLUAMIDE]	> 46
CO[C@@H]1[C@@H](OC2OC(C)C(OC3CC(C)(O)C(O)C(C)O3)C(N(C)C)C2O)[C@@H](CC=O)C[C@@H](C)[C@@H](OC2CCC(N(C)C)C(C)O2)/C=C/C=C/C[C@@H](C)OC(=O)C[C@H]1OC(C)=O (stereo not given in full) [Acetyl Spiramycin]	> 46
CCc1cc2c(s1)-n1c(C)nnc1CN=C2c1ccccc1Cl [ETIZOLAM]	> 46
COc1cc(CNC(=O)CCCC/C=C/C(C)C)ccc1O [Capsaicin]	> 46
CCC1(CCC(C)C)C(=O)NC(=O)NC1=O [(?)-Amobarbital]	> 46

Compound	IC50 of cell viability [µM]
Cl\C1=C(/Cl)C2(Cl)C3C4CC(C5OC45)C3C1(Cl)C2(Cl)Cl (stereo not given) [ENDRIN]	> 46
CC1=NN=C2C\N=C(C3=CC=CC=C3Cl)/C4=C(SC(=C4)CCC(=O)N5CCOCC5)[N]12 [Apafant]	> 46
CC/C=C(\C(=O)N[C@H]1C(=O)N2C(C(=O)OCOC(=O)C(C)(C)C)=C(COC(N)=O)CS[C@H]12)c1csc(N)n1 [Cefcapene pivoxil hydrochloride]	> 46
O=C(OCCO)c1ccccc1O [2-Hydroxyethyl salicylate]	> 46
Cc1ccc(Cl)c(O)c1 [CHLORO-M-CRESOL]	> 46
CNC(C)Cc1ccc2c(c1)OCO2 (stereo not given) [(?)-3,4-Methylenedioxymethamphetamine]	> 46
C=CCN=C=S [Allyl isothiocyanate]	> 46
CC(=O)OCC(=O)[C@@]1(O)CC[C@H]2[C@@H]3CCC/4=C/C(=O)CC[C@]4(C)[C@H]3C(=O)C[C@]12C [Cortisone 21-acetate]	> 46
C[C@@H]1CCC[C@H](C)N1NC(=O)c1ccc(Cl)c([S+](N)(=O)[O-])c1 [Clopamide]	> 46
CN(C)C(=O)Oc1cc(OC(=O)N(C)C)cc([C@@H](O)CNC(C)(C)C)c1 [Bambuterol hydrochloride]	> 46
OCCOc1ccccc1 [2-Phenoxyethanol]	> 46
C[C@@H]1C[C@H]2[C@@H]3CCC/4=C/C(=O)/C=C\[C@]4(C)[C@@]3(F)[C@@H](O)C[C@]2(C)[C@H]1C(=O)CO [Desoximetasone]	> 46
CC1CNC(=O)CCC2(C)C(CC(N)=O)C3[N+]/4=C2/C(=C\5C(CCC(N)=O)C(C)(C)C\6=[N+]5[Co-3]47(CC8OC(C(O)C8O)[N]9C=NC%10=C(N)N=CN=C9%10)(N%11/C(=C(C)\C%12=[N+]7\C(=C6)C(CCC(N)=O)C%12(C)CC(N)=O)C(CCC(N)=O)C(C)(CC(N)=O)C3%11C)[N+]%13=C[N](C%14O[C@H](CO)[C@@H](O[P]([O-])(=O)O1)C%14O)C%15=C%13C=C(C)C(=C%15)C)C (stereo not given in full) [COENZYME B12]	> 46
[Na+].C[N]1N=NN=C1SC\C2=C(\[N@]3[C@@H](SC2)[C@H](NC(=O)[C@@H](O)C4=CC=CC=C4)C3=O)C([O-])=O [Cefamandole sodium salt]	> 46
CNC(=O)c1ccccc1Sc1ccc2c(/C=C/c3ccccn3)n[nH]c2c1 [Axitinib]	> 46
CCO[P](=S)(OCC)OC1=CC=C2\C(=C(Cl)/C(=O)OC2=C1)C [COUMOPHOS]	> 46
CNC(C)CC1CCCCC1 (stereo not given) [Propylhexadrine]	> 46
COc1ccc(C(=O)c2c(C)n(CCN3CCOCC3)c3ccccc23)cc1 [Pravadoline maleate]	> 46
CCOC(=O)CC(SP(=S)(OC)OC)C(=O)OCC (stereo not given) [MALATHION]	> 46

Further lines, results first:

IC50 of cell viability [µM]	Compound
> 46	C[S+]([O-])(=O)C1=CC=C(C=C1)C/2=C(/C(=O)OC2)C3=CC=CC=C3 [ROFECOXIB]
> 46	COC(C)=O [Methyl acetate]
> 46	COc1ccc2c(c1)C(=O)N(CCc1ccc([S+](=O)([O-])NC(=O)NC3CCCCC3)cc1)C(=O)C2(C)C [Gliquidone]
> 46	CCCCCCCC(=O)OCC(COC(=O)CCCCCCC)OC(=O)CCCCCCC [Tricaprylin]
> 46	CC[C@@H]([C@H](C)O)N1\N=C/N(C1=O)C2=CC=C(C=C2)N3CCN(CC3)C4=CC=C(OCC5CO[C@@](C5)(C[N]6C=NC=N6)C7=C(F)C=C(F)C=C7)C=C4 (stereo not given in full) [Posaconazole]
> 46	CC1(C)S[C@H]2[C@H](NC(=O)[C@@H](N)C3=CC=CC=C3)C(=O)[N@]2[C@H]1C(=O)O[C@@H]4OC(=O)C5=C4C=CC=C5 [Talampicillin hydrochloride]
> 46	CCc1cccc(CC)c1NC(=O)CN(CC(=O)O)CC(=O)O [Etifenin]
> 46	NC(C(=O)O)c1ccc(O)cc1 (stereo not given) [OXFENICINUM]
> 46	O=C1O[C@H]([C@@H](O)CO)C(O)=C1O [L-Ascorbic acid]
> 46	CO[C@H]1C[C@H](O[C@@H]2[C@H](C)[C@H](O[C@@H]3O[C@@H](C)C[C@@H](N(C)C)[C@H]3O)[C@H](C)C[C@]3(CO3)C(=O)[C@H](C)[C@H](O)[C@H](C)[C@H](C)OC(=O)[C@@H]2C)O[C@@H](C)[C@H]1O [Oleandomycin phosphate]
> 46	COC(=O)c1cccnc1 [METHYL NICOTINATE]
> 46	CN(C(=O)CN(CCO)CC(=O)N(C)C(C)(C)Cc1ccccc1)C(C)(C)Cc1ccccc1 [Oxethazaine]
> 46	Cc1cccc(C(=O)O)c1O [HYDROXYTOLUIC ACID]
> 46	CN1CCN(CCCN2c3ccccc3Sc3ccc(Cl)cc32)CC1 [Prochlorperazine dimaleate]
> 46	COC(=O)\C1=C(/C)N\C(=C(/C1C2=C(C=CC=C2)[N+]([O-])=O)C(=O)OC)C [NIFEDIPINE]
> 46	Cc1ccc(O)c([C@H](CCN(C(C)C)C(C)C)c2ccccc2)c1 [Tolterodina]

IC50 of cell viability [µM]	Compound
> 46	CCN1CCC[C@H](OC(=O)C(c2ccccc2)c2ccccc2)C1 [Piperidolate hydrochloride]
> 46	O=C1c2ccccc2C(=O)C1c1ccccc1 [Phenindione]
> 46	O=C(NCCN1CCOCC1)c1ccc(Cl)cc1 [Moclobemide]
> 46	CCOC(=O)NNc1nncc2ccccc12 [Todralazine hydrochloride]
> 46	O[C@@H]1CO[C@H]2[C@@H]1OC[C@@H]2O [ISOSORBIDE]
> 46	Cc1ccc2nc(N)nc(O)c2c1Sc1ccncc1 [NOLATREXED]
> 46	CC1=C(/C=C/C(C)=C/C=C/C(C)=C/C(=O)O)C(C)(C)CCC1 [TRETINOIN]
> 46	CC(C)CC(NC(=O)CNC(=O)C(Cc1ccc(O)cc1)NC(=O)C(CO)NC(=O)C(Cc1c[nH]c2ccccc12)NC(=O)C(Cc1c[nH]cn1)NC(=O)C1CCC(=O)N1)C(=O)NC(CCCNC(=N)N)C(=O)N1CCCC1C(=O)NCC(N)=O (stereo not given) [GONADORELIN]
> 46	CC(C)OC(=O)C(C)(C)Oc1ccc(C(=O)c2ccc(Cl)cc2)cc1 [Fenofibrate]
> 46	C[C@H](CSC(=O)c1ccccc1)C(=O)N1C[C@@H](Sc2ccccc2)C[C@H]1C(=O)O [ZOFENOPRIL]
> 46	CCCCCCCCCCCCOCCCN [LAURIXAMINUM]
> 46	O=C(O)c1cccnc1Nc1cccc(C(F)(F)F)c1 [NIFLUMIC ACID]
> 46	CC(O)CCCCn1c(=O)c2c(ncn2C)n(C)c1=O (stereo not given) [Lisofylline]
> 46	CC(C)CN(C[C@@H](OP(=O)([O-])[O-])[C@H](Cc1ccccc1)NC(=O)O[C@@H]1CCOC1)[S+](=O)([O-])c1ccc(N)cc1 [FOSAMPRENAVIR CALCIUM]
> 46	CC/1=C(\CCN2CCC(CC2)C3=NOC4=C3C=CC(=C4)F)C(=O)N/5CCCCC5=N1 [RISPERIDONE]
> 46	CC(O)CN(CCN(CC(C)O)CC(C)O)CC(C)O (stereo not given) [EDETOLUM]

— the supplement of paper PMC3974653
